Drawing on PubChem BioAssay (NCI), this text covers GI50 and TGI for 15 compounds.

Each structure is given as a SMILES string.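 Cells were grown in 96-well plates and exposed to each compound for 48 hours at five concentrations; endpoints were interpolated linearly between bracketing concentrations, or set to the highest concentration if not reached. GI50: concentration for 50% inhibition of growth. At the TGI there is no net growth.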

Assay in all cases: NCI-60 cell line screen, 48 h
For assay [1], the system named is HS 578T breast.
The test system of assay [2] is MDA-MB-231 breast.
Assay [3] deals with SN12C renal.
Assay [4] relates to U251 CNS.
The subject of assay [5] is DU-145 prostate.
Assay [6] concerns SK-MEL-5 melanoma.
The subject of assay [7] is BT-549 breast.
The test system of assay [8] is NCI-H522 lung.
Assay [9] has as its system HCC-2998 colon.
Assay [10] relates to LOX IMVI melanoma.

On to `Clc1nc(Cl)c2ncn(Cc3cccc(COc4cccc(OCc5cccc(Cn6cnc7c(Cl)nc(Cl)nc76)c5)c4)c3)c2n1`, for which the GI50 in assay [1] was > 100 µM; in assay [2] it was 27.2 µM; in [3], > 100 µM; in [4], 36.9 µM; in assay [5], 14.2 µM; in [6], 9.76 µM. Also, the GI50 in assay [7] was 14.1 µM; in assay [8], 41.1 µM; in assay [9], 17.9 µM; in assay [10] it was 23.9 µM. For the same compound, the TGI in assay [1] is > 100 µM; in assay [2], > 100 µM; in assay [3], > 100 µM; in [4], > 100 µM; in [5], 42.8 µM; in assay [6], 46.1 µM. Also, the TGI in [7] is > 100 µM; in assay [8], > 100 µM; in assay [9], 33.2 µM; in [10], > 100 µM.

With `COc1cc(C2=NN(C(C)=O)C(c3ccc(OC(C)=O)cc3OC(C)=O)O2)c(OC(C)=O)c2ccccc12` (stereo not given), the GI50 in assay [1] was 13.1 µM; in [2], 0.543 µM; in [3], 0.864 µM; in assay [4] it was 0.472 µM; in [5], 0.683 µM; in [6] it was 0.984 µM. The GI50 in assay [7] was 1.87 µM; in assay [8] it was 1.19 µM; in assay [9], 1.03 µM; in [10], 0.374 µM. Moreover, the TGI in assay [1] is > 100 µM; in assay [2], > 56.4 µM; in assay [3], > 43.8 µM; in assay [4], 14.8 µM; in [5], > 100 µM; in assay [6], 7.54 µM. Also, the TGI worked out at 47.6 µM in [7], 11 µM in [8], 27.9 µM in assay [9] and 11.7 µM in [10].

With `CC1CN1CC(O)C(O)CN1CC1C` (stereo not given), the GI50 in [1] was 11.3 µM; in assay [2], 13.9 µM; in [3], 0.692 µM; in assay [4], 1.36 µM; in assay [5], 0.48 µM; in assay [6], 3.3 µM. In addition, the GI50 in assay [7] is 6.43 µM; in [8], 1.72 µM; in assay [9], 6.21 µM; in assay [10], 0.814 µM. Also, the TGI in assay [1] is 57.4 µM; in assay [2], 45.3 µM; in assay [3], > 67.8 µM; in assay [4] it was > 64.8 µM; in assay [5], 9.28 µM; in assay [6] it was 14.8 µM. Further, the TGI in assay [7] was determined as 87.1 µM; in [8] it was 7.08 µM; in [9], 23.4 µM; in [10] it was 11.4 µM.

For `CCS(=O)(=O)c1ccc(OC)c(Nc2ncc(-c3cccc(OC)c3)o2)c1`, the GI50 in assay [1] is 5.48 µM; in assay [2], 8.54 µM; in [3], 8.3 µM; in assay [4], 8.09 µM; in assay [5], 9.99 µM; in assay [6], 10 µM. Also, the GI50 was 14.6 µM in assay [7], 8.58 µM in assay [8], 23 µM in assay [9] and 6.12 µM in [10]. Also, the TGI in assay [1] was 17.6 µM; in [2], > 25 µM; in assay [3], > 25 µM; in [4], > 25 µM; in assay [5] it was > 25 µM; in assay [6], > 25 µM. In addition, the TGI was > 25 µM in assay [7], 22.5 µM in assay [8], > 25 µM in [9] and 24.8 µM in [10].

With `CCC#CC[C@H]1C/C=C2/C(=O)C=C[C@@H]2C/C=C\CCCC(=O)O1`, the GI50 in [1] was 1.96 µM; in assay [2], 1.85 µM; in assay [3] it was 0.954 µM; in assay [4], 0.706 µM; in assay [5] it was 1.37 µM; in [6], 0.854 µM. Also, the GI50 in [7] is 1.11 µM; in assay [8], 0.663 µM; in assay [9], 0.991 µM; in assay [10], 0.698 µM. For the same compound, the TGI in assay [1] amounted to 14.8 µM; in [2] it was 9.28 µM; in assay [3], 2.78 µM; in assay [4], 2.24 µM; in assay [5] it was 6.24 µM; in assay [6], 1.71 µM. In addition, the TGI in [7] stood at 3.27 µM; in [8], 1.83 µM; in assay [9], 1.8 µM; in [10] it was 1.5 µM.

With `COc1ccc2c(c1)C=C([N+](=O)[O-])C(C1OC(C)(C)OC1C1COC(C)(C)O1)O2` (stereo not given), the TGI in [1] was > 100 µM; in [2] it was 6.6 µM; in [3], 19.7 µM; in assay [4], 9.83 µM; in assay [5], 29.5 µM; in assay [6], 9.17 µM. Moreover, the TGI in assay [7] came out at 12.6 µM; in assay [8] it was 2.29 µM; in [9], 27.7 µM; in assay [10] it was 2.92 µM.

Turning to `CCOC(=O)c1c(CN2CCN(c3ccccc3)CC2)n(-c2ccccc2)c2cc(Br)c(O)cc12`, the GI50 in assay [1] is 14.4 µM; in assay [2], 15.7 µM; in [3], 5.68 µM; in assay [4], 6.43 µM; in assay [5], 12.5 µM; in assay [6] it was 8.82 µM. Besides, the GI50 is 8.64 µM in assay [7], 16.1 µM in assay [8], 15.7 µM in [9] and 3.1 µM in assay [10]. Besides, the TGI in assay [1] is > 100 µM; in [2] it was 33.1 µM; in [3] it was 18.5 µM; in assay [4], 19 µM; in assay [5], 28.2 µM; in [6], 23.1 µM. Besides, the TGI in assay [7] was 23.9 µM; in [8], 44.5 µM; in [9], 32.5 µM; in assay [10], 11.1 µM.

As to `O=C(CCl)Nc1ccc(Cl)cc1`, the GI50 in assay [1] was 3.96 µM; in assay [2], 5.24 µM; in assay [3], 3.4 µM; in assay [4] it was 2.22 µM; in assay [5], 4.92 µM; in [6], 1.71 µM. In addition, the GI50 is 2.78 µM in assay [7], 1.48 µM in assay [8], 11.3 µM in assay [9] and 1.56 µM in assay [10]. Also, the TGI in [1] was determined as 42.4 µM; in assay [2] it was 25.9 µM; in [3], 22.9 µM; in assay [4], 5.26 µM; in [5], 17.4 µM; in assay [6], 3.16 µM. The TGI in [7] was determined as 9.92 µM; in assay [8], 3.01 µM; in [9] it was 24.9 µM; in assay [10], 4.23 µM.

For `CCCCN=C(N)c1ccc(OCCSCCOc2ccc(C(N)=NCCCC)cc2)cc1`, the GI50 was 34.2 µM in [1]; 16.9 µM in [2]; 1.76 µM in [3]; 1.6 µM in assay [4]; 10.7 µM in assay [5]; 1.28 µM in assay [6]. In addition, the GI50 is 1.97 µM in assay [7], 2.25 µM in assay [8], 5.87 µM in [9] and 9.46 µM in assay [10]. Further, the TGI in [1] was > 100 µM; in [2] it was > 100 µM; in [3] it was > 100 µM; in assay [4], > 100 µM; in assay [5], > 100 µM; in assay [6], 14.4 µM. The TGI is 13.3 µM in [7], 12.8 µM in assay [8], > 100 µM in [9] and > 100 µM in assay [10].

Turning to `O=C(c1cccc(O)c1O)c1cn(Cc2ccc(F)cc2)c2cccc(O)c12`, the GI50 in assay [1] is 3.42 µM; in assay [2], 5.83 µM; in assay [3], 6.37 µM; in assay [4], 2.95 µM; in assay [5], 5.1 µM; in [6] it was 1.73 µM. In addition, the GI50 in assay [7] was 7.72 µM; in assay [8] it was 1.38 µM; in assay [9], 1.55 µM; in [10] it was 2.58 µM. The TGI was 20.6 µM in assay [1]; 40.2 µM in assay [2]; 21.7 µM in assay [3]; 15.2 µM in assay [4]; 17.3 µM in assay [5]; 4.97 µM in assay [6]. The TGI was 21.6 µM in [7], 8.08 µM in assay [8], 11.4 µM in assay [9] and 16.1 µM in assay [10].

As to `CCN1C(=O)CNc2ncc(-c3ccc(-c4ncn[nH]4)nc3C)nc21`, the GI50 was 0.111 µM in [1]; 0.127 µM in assay [2]; 0.168 µM in assay [3]; 0.289 µM in assay [4]; 0.253 µM in [5]; 0.0864 µM in assay [6]. Further, the GI50 in assay [7] was 0.0716 µM; in assay [8], 0.147 µM; in assay [9], 0.338 µM; in [10], 0.205 µM. Also, the TGI is 0.526 µM in [1]; 3.33 µM in assay [2]; 14.9 µM in [3]; 9.64 µM in assay [4]; 12.7 µM in assay [5]; 0.792 µM in assay [6]. The TGI stood at 0.695 µM in [7], 2.88 µM in assay [8], 12.4 µM in assay [9] and 2.47 µM in assay [10].

For `COc1cc(NC(=O)c2cc(O)c(CC=C(C)C)c(O)c2)cc2c1O[C@]1(C)CC[C@@H](O)C(C)(C)[C@H]1C2`, the GI50 in assay [1] is 0.456 µM; in assay [2] it was 3.56 µM; in [3], 8.83 µM; in assay [4] it was 0.846 µM; in assay [5], 7.49 µM; in [6], 1.51 µM. The GI50 is 0.819 µM in assay [7], 3.42 µM in [8], 10.6 µM in assay [9] and 3.07 µM in assay [10]. The TGI is 15.5 µM in [1]; 19.8 µM in [2]; 36.6 µM in assay [3]; 14.8 µM in assay [4]; 20.5 µM in assay [5]; 3.61 µM in assay [6]. The TGI in [7] amounted to 13.5 µM; in [8] it was 12.3 µM; in assay [9], 24.8 µM; in [10], 19.1 µM.

Regarding `COc1ccc(OC)c(/C=C/C(=O)N/N=C/c2ccc(Cl)cc2)c1`, the GI50 was 0.188 µM in assay [1]; 0.531 µM in assay [2]; 0.488 µM in [3]; 0.184 µM in [4]; 0.18 µM in assay [5]; 0.0363 µM in assay [6]. Besides, the GI50 is 1.17 µM in assay [7], 0.0298 µM in assay [8], 0.0831 µM in assay [9] and 0.115 µM in assay [10]. Further, the TGI in assay [1] was > 100 µM; in assay [2], > 100 µM; in assay [3] it was > 100 µM; in assay [4], 1.49 µM; in assay [5], > 29 µM; in assay [6], 12.6 µM. Further, the TGI is > 100 µM in [7], 5.72 µM in assay [8], 0.653 µM in assay [9] and > 100 µM in assay [10].

Turning to `CCOC(=O)Sc1ncnc2nc[nH]c12`, the GI50 in [1] is 13.8 µM; in [2] it was 3.88 µM; in assay [3], 7.94 µM; in assay [4] it was 12.9 µM; in [5], 0.586 µM; in assay [6], 5.96 µM. The GI50 was 9.92 µM in assay [7], 3.33 µM in assay [8], 3.13 µM in assay [9] and 0.348 µM in [10]. Also, the TGI in assay [1], in [2], in [3], in assay [4], in assay [5] and in [6] was > 100 µM in each case. Further, the TGI in assay [7], in assay [8], in [9] and in assay [10] was > 100 µM throughout.

As to `CCc1[nH]c(=O)nc(N)c1-c1ccc(N2CCCCC2)c([N+](=O)[O-])c1`, the TGI in [1], in [2], in assay [3], in [4], in assay [5] and in assay [6] was > 100 µM throughout. In addition, the TGI in assay [7], in [8], in assay [9] and in assay [10] was > 100 µM each time.
